Experimental data as given in ChEMBL document CHEMBL4483862, “Open-source discovery of chemical leads for next-generation chemoprotective antimalarials” (2018).

System: Plasmodium berghei
Assay: Luciferase/luciferin-expressing antifolate-resistant parasites were used to infect a culture of HepG2 cells that were pre-incubated with compounds. Infected hepatocytes emit light due to the luciferase reaction. Assay results are presented as the percent inhibition of light emission compared to control. […]
Type: functional
Settings: sporozoite; for IC90: read-out: LUCIFERASE INFECTION ASSAY - IC90
[1] = read-out: LUCIFERASE INFECTION ASSAY - IC50

Row | Structure (SMILES) | IC90 [µM] | IC50 [1] [µM] | further results
1 | O=C(CCN1CCN(c2ccccc2)CC1)NNC(=O)c1ccc(C(F)(F)F)cn1 | 7.86 | – | IC50 (HEPG2TOX_HILL_SLOPE 7.92, HEPG2TOX_R_SQUARED 0.92, PBLUC_HILL_SLOPE 7.4, PBLUC_R_SQUARED 0.199, read-out: LUCIFERASE INFECTION ASSAY - IC50): 5.84 µM
2 | COc1ccc2c(c1)CCCN2Cc1nn2c(=O)cc(C)nc2s1 | > 10 | > 10 | –
3 | COC(=O)c1c(NC(=O)c2ccco2)c2cc(NC(C)Cc3ccccc3OC)cnc2n1C (stereo unspecified) | > 7.14 | – | IC50 (HEPG2TOX_HILL_SLOPE 9.88, HEPG2TOX_R_SQUARED 0.405, PBLUC_HILL_SLOPE 3.37, PBLUC_R_SQUARED 0.677, read-out: LUCIFERASE INFECTION ASSAY - IC50): 4.39 µM
4 | Nc1c(C(=O)c2ccc3c(c2)NC(=O)CO3)sc2c1c(=O)[nH]c(=O)n2Cc1ccccc1 | > 10 | – | IC50 (HEPG2TOX_HILL_SLOPE 15, HEPG2TOX_R_SQUARED 0.948, PBLUC_HILL_SLOPE 0.935, PBLUC_R_SQUARED 0.804, read-out: LUCIFERASE INFECTION ASSAY - IC50): 1.58 µM
5 | O=S(=O)(c1cc(C(F)(F)F)ccn1)c1cccs1 | > 11.3 | > 11.3 | –
6 | CSc1nnc(Sc2ncc([N+](=O)[O-])s2)s1 | > 11.3 | – | IC50 (FFLUC_HILL_SLOPE 11.6, FFLUC_R_SQUARED 0.224, HEPG2TOX_HILL_SLOPE 8.93, HEPG2TOX_R_SQUARED 0.0924, PBLUC_HILL_SLOPE 12.6, PBLUC_R_SQUARED 0.322, read-out: LUCIFERASE INFECTION ASSAY - IC50): 10 µM
7 | CC(C)C(C)NC(=O)CSc1nnc(CC2CCCC2)[nH]1 (stereo unspecified) | > 10 | > 10 | –
8 | O=C(/C=C/c1cccc([N+](=O)[O-])c1)c1cccc(N2CCCC2=O)c1 | 4.73 | – | IC50 (HEPG2TOX_HILL_SLOPE 11.8, HEPG2TOX_R_SQUARED 0.912, PBLUC_HILL_SLOPE 14.2, PBLUC_R_SQUARED 0.853, read-out: LUCIFERASE INFECTION ASSAY - IC50): 4.05 µM
9 | FC(F)(F)Oc1cccc(-c2nc3ccnc(Nc4ccccc4)c3[nH]2)c1 | > 10 | – | IC50 (HEPG2TOX_HILL_SLOPE 7.94, HEPG2TOX_R_SQUARED 0.491, PBLUC_HILL_SLOPE 12.6, PBLUC_R_SQUARED 0.533, read-out: LUCIFERASE INFECTION ASSAY - IC50): 8.84 µM
10 | C=CCSc1nnc(-c2ccco2)n1-c1ccc(OCc2ccccc2)cc1 | > 8.47 | > 8.47 | –
11 | FC(F)(F)c1cccc(NC(=S)NC2CC3C=CC2C3)c1 (stereo unspecified) | > 10.6 | – | IC50 (PBLUC_HILL_SLOPE 0.542, PBLUC_R_SQUARED 0.315, read-out: LUCIFERASE INFECTION ASSAY - IC50): 4.71 µM
12 | O=C(Nc1cc(Cl)cc(Cl)c1)Nc1cc(Cl)cc(Cl)c1 | 1.35 | – | IC50 (HEPG2TOX_HILL_SLOPE 1.67, HEPG2TOX_R_SQUARED 0.958, PBLUC_HILL_SLOPE 0.797, PBLUC_R_SQUARED 0.657, read-out: LUCIFERASE INFECTION ASSAY - IC50): 0.0855 µM
13 | Cc1nc(C(=O)N2CCC(C)(C(=O)NS(=O)(=O)C3CC3)C2)c(C)o1 (stereo unspecified) | > 9.28 | > 9.28 | –
14 | CC(OC(=O)c1ccccc1Nc1ccccc1)C(=O)NC1CC1 (stereo unspecified) | > 10 | – | IC50 (PBLUC_HILL_SLOPE 8.51, PBLUC_R_SQUARED 0.0555, read-out: LUCIFERASE INFECTION ASSAY - IC50): 8.65 µM
15 | O=[N+]([O-])c1ccc(NC2CCN(Cc3ccccc3)CC2)c2ccncc12 | > 10 | 9.37 | –
16 | Cc1cc(C(=O)Nc2nc3cc(C(F)(F)F)ccc3n2Cc2ccco2)c2c(C)noc2n1 | 3.24 | – | IC50 (HEPG2TOX_HILL_SLOPE 1.6, HEPG2TOX_R_SQUARED 0.983, PBLUC_HILL_SLOPE 3.8, PBLUC_R_SQUARED 0.87, read-out: LUCIFERASE INFECTION ASSAY - IC50): 1.82 µM
17 | Cc1c(C(=O)Nc2nc(CN3CC(C)CC(C)C3)cs2)[nH]c2c1C(=O)CC(C)(C)C2 (stereo unspecified) | 9.99 | – | IC50 (PBLUC_HILL_SLOPE 1.7, PBLUC_R_SQUARED 0.746, read-out: LUCIFERASE INFECTION ASSAY - IC50): 2.74 µM
18 | CCCCN(C(=O)c1cccnc1SC)c1nc2ccc(C)cc2s1 | > 10 | > 10 | –
19 | O=C(Nc1ccc(F)c(Cl)c1)Nc1csc(Cc2c(Cl)cccc2Cl)n1 | > 7.66 | – | IC50 (FFLUC_HILL_SLOPE 16.6, FFLUC_R_SQUARED 0.437, PBLUC_HILL_SLOPE 14.1, PBLUC_R_SQUARED 0.179, read-out: LUCIFERASE INFECTION ASSAY - IC50): 6.61 µM

Row | Structure (SMILES) | IC90 [µM] | IC50 [1] [µM] | further results
20 | NC(=O)C1CCN(c2nc(-c3cccs3)nc3sc4c(c23)CCCC4)CC1 | > 10 | > 10 | –
21 | CC(C#N)Sc1nc(Nc2ccccc2)c2ccccc2n1 (stereo unspecified) | > 10 | > 10 | –
22 | Clc1ccc(-c2cnc3cnc(-c4ccccc4)cn23)cc1 | 4.82 | – | IC50 (PBLUC_HILL_SLOPE 10.1, PBLUC_R_SQUARED 0.74, read-out: LUCIFERASE INFECTION ASSAY - IC50): 3.88 µM
23 | O=C1C(Cl)=C(Nc2ccc(O)cc2)C(=O)c2ccccc21 | 4.51 | – | IC50 (FFLUC_HILL_SLOPE 7.86, FFLUC_R_SQUARED 0.408, HEPG2TOX_HILL_SLOPE 4.2, HEPG2TOX_R_SQUARED 0.984, PBLUC_HILL_SLOPE 12.7, PBLUC_R_SQUARED 0.571, read-out: LUCIFERASE INFECTION ASSAY - IC50): 3.8 µM
24 | CCOc1ccccc1NC(=O)CSc1nnc2cc(C)c3ccccc3n12 | > 10 | > 10 | –
25 | CN(C)c1ccc(-c2cnc3ccc(NCc4ccc5c(c4)OCO5)nn23)cc1 | 3.57 | – | IC50 (HEPG2TOX_HILL_SLOPE 1.81, HEPG2TOX_R_SQUARED 0.969, PBLUC_HILL_SLOPE 2.01, PBLUC_R_SQUARED 0.65, read-out: LUCIFERASE INFECTION ASSAY - IC50): 1.2 µM
26 | O=C(Nc1nc(CN2CCOCC2)cs1)c1ccc(-c2ccccc2)cc1 | > 10 | – | IC50 (HEPG2TOX_HILL_SLOPE 0.446, HEPG2TOX_R_SQUARED 0.661, PBLUC_HILL_SLOPE 0.824, PBLUC_R_SQUARED 0.624, read-out: LUCIFERASE INFECTION ASSAY - IC50): 0.817 µM
27 | CS(=O)(=O)c1ccccc1NC(=O)COC(=O)c1cccnc1N | > 10 | – | IC50 (FFLUC_HILL_SLOPE 0.757, FFLUC_R_SQUARED 0.634, read-out: LUCIFERASE INFECTION ASSAY - IC50): > 10 µM
28 | CC(C)(C)CC(=O)Nc1ccc(-c2nc3ccccc3[nH]2)cc1 | 6 | – | IC50 (HEPG2TOX_HILL_SLOPE 7.93, HEPG2TOX_R_SQUARED 0.604, PBLUC_HILL_SLOPE 0.372, PBLUC_R_SQUARED 0.913, read-out: LUCIFERASE INFECTION ASSAY - IC50): 0.0164 µM
29 | O=C(c1ccccc1)N1[C@@H]2CC[C@@H](C2)[C@H]1c1nc2cccc(OCc3ccccc3)c2[nH]1 | > 10 | – | IC50 (PBLUC_HILL_SLOPE 2.24, PBLUC_R_SQUARED 0.373, read-out: LUCIFERASE INFECTION ASSAY - IC50): > 10 µM
30 | CCOc1ccc(NC(=O)c2ccc(NC(=O)CSc3nncs3)cc2)cc1 | > 10 | > 10 | –
31 | CSc1ncc(C(=O)N2CCN(c3ccnc4cc(Cl)ccc34)CC2)n1-c1ccc(F)cc1 | 9.72 | – | IC50 (PBLUC_HILL_SLOPE 12.3, PBLUC_R_SQUARED 0.334, read-out: LUCIFERASE INFECTION ASSAY - IC50): 8.13 µM
32 | O=C(NCc1ccccn1)c1nn(CCc2ccccc2)c2c1CN(Cc1ccc(F)cc1)CC2 | > 7.03 | – | IC50 (PBLUC_HILL_SLOPE 15.1, PBLUC_R_SQUARED 0.777, read-out: LUCIFERASE INFECTION ASSAY - IC50): 6.49 µM
33 | COc1ccc2[nH]c(C)c(-c3csc(NC(=O)c4ccccn4)n3)c2c1 | > 9.06 | – | IC50 (PBLUC_HILL_SLOPE 10.6, PBLUC_R_SQUARED 0.566, read-out: LUCIFERASE INFECTION ASSAY - IC50): 7.84 µM
34 | CNc1nc2cnc(Nc3cccc(F)c3)cc2n1-c1cccc(C(F)(F)F)c1 | > 10 | – | IC50 (FFLUC_HILL_SLOPE 8.44, FFLUC_R_SQUARED 0.0352, read-out: LUCIFERASE INFECTION ASSAY - IC50): > 10 µM
35 | CCC1Oc2ccccc2C(=O)N(Cc2ccccc2F)C1=O (stereo unspecified) | > 10.5 | > 10.5 | –
36 | Cn1c(CSc2cccs2)nnc1SCC(=O)Nc1ccc(F)cc1F | > 8 | > 8 | –
37 | Cc1ccc(NCC(=O)NC(=O)Nc2cccc(C)c2C)cc1S(=O)(=O)N1CCCCC1 | > 10 | – | IC50 (HEPG2TOX_HILL_SLOPE 1.43, HEPG2TOX_R_SQUARED 0.867, PBLUC_HILL_SLOPE 1.55, PBLUC_R_SQUARED 0.466, read-out: LUCIFERASE INFECTION ASSAY - IC50): 2.55 µM
38 | O=C(CN(Cc1c(F)cccc1Cl)C1CC1)Nc1ccccc1Cl | > 10 | – | IC50 (FFLUC_HILL_SLOPE 11.2, FFLUC_R_SQUARED 0.995, read-out: LUCIFERASE INFECTION ASSAY - IC50): > 10 µM
